According to paper PMC12670405, “Second-Generation AURKA-Targeting PROTACs: Structural Optimization toward in Vivo Degradation in Neuroblastoma” (Journal of Medicinal Chemistry, 2025):
Values joined by “and” are separate entries in the source; they are usually repeats but may differ in a detail not shown here. Equal entries are not always repeated. Where two headings read alike, the source gives them in different places.

What was measured:
Plasma stability assay = type: in vitro ADME, CD-1 mouse; settings: for half-life at 1 μM: CD-1 mouse plasma, 37 °C, read-out: plasma t1/2
Experimental: (§1) Plasma and metabolic stability tests were performed by Eurofins Discovery. For the plasma stability assay, test compounds were incubated in CD-1 mouse plasma for 0, 0.5, 1, 1.5, and 2 h at 37 °C at a concentration of 1 μM. For the metabolic stability assay, test compounds were incubated at 37 °C in either (1) CD-1 mouse liver microsomes (MLM) (0.1 mg/mL) at a concentration of 0.1 μM for 0, 15, 30, 45, and 60 min or (2) CD-1 mouse hepatocytes (MH) (0.7 million viable cells/mL) at a concentration of 1 μM for 0, 0.5, 1, 1.5, and 2 h. At the respective time points, acetonitrile was added to the incubation mixture followed by centrifugation. Samples were analyzed by HPLC-MS/MS and peak areas were recorded for each analyte. Compound stability, expressed as the percentage of parent compound remaining, was calculated by comparing the peak area of the compound at each time point relative to that of the 0h time point. Percentage compound remaining is plotted as a function of time as a logarithmic curve. Half-life (t 1/2) is estimated from the slope of the initial linear range of the curve, assuming first-order kinetics. […] Both plasma and metabolic assay experiments were performed once with 2 replicate samples each.

AURKA = biological target: T1, AURKA (Homo sapiens, UniProt O14965); assay: AURKA degradation, Simple Western; type: cell-based; parameters: Representative Western blot showing levels of endogenous proteins MDR1, MYCN, AURKA, and CRBN in untreated cell lines; endogenous in cells; host or cells: NGP, IMR-32, SJNB-8, SK-N-BE(2)-C, SK-N-SH, SK-N-AS, SJNB-1, RPE, HEK293T; settings: for pDC50: AURKA degradation; for time to robust AURKA depletion: IMR-32, 500 nM; for AURKA degradation potency upon cotreatment with tariquidar (in words): 100 nM, 1 μM tariquidar; for AURKA Degradation 24h @100nM / AURKA Degradation 24h @1000nM / AURKA degradation potency upon cotreatment with tariquidar (in words): 24h;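 on AURKA Degradation 24h @1000nM: measured in NGP neuroblastoma cells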;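 on AURKA Degradation 24h @100nM: measured in NGP neuroblastoma cells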
T1 sequence (O14965 1-403): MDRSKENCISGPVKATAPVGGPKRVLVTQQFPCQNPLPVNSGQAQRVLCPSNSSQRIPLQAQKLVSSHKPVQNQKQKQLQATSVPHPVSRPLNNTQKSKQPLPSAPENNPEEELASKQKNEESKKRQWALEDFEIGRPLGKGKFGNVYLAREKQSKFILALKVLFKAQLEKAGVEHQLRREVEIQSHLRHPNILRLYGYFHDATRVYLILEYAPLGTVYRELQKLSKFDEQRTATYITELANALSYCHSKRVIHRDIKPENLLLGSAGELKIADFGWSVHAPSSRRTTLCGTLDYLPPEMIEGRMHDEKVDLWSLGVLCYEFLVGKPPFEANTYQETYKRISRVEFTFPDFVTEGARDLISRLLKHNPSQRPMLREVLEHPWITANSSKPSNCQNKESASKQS
In short: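 Cells treated with compound in medium; lysed in RIPA and analysed by Simple Western (0.8 μg/μL lysate, 0.2 μg/μL for MYCN). Peak areas were normalized to vinculin, giving fold change versus DMSO (mean of 3 experiments); DC50 interpolated from four-parameter dose–response curves.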

[1] = Metabolic stability in mouse hepatocytes (MH); type: in vitro ADME, CD-1 mouse; settings: CD-1
Experimental: as §1

[2] = NGP, 24 h treatment, read-out: AURKA DC50
[3] = SK-N-BE(2)-C, read-out: AURKA DC50 24h

| Structure (SMILES) | half-life at 1 μM (Plasma stability assay) [h] | plasma t1/2 (Plasma stability assay) [h] | AURKA Degradation 24h @100nM (AURKA) | AURKA Degradation 24h @1000nM (AURKA) | pDC50 (AURKA) | Dmax (AURKA; NGP, 24 h treatment) [%] | DC50 (AURKA; [2]) [nM] | DC50 (AURKA; read-out: AURKA DC50) [nM] | hepatocyte CLint at 1 μM [1] [µL/min/1e6 cells] | AURKA degradation activity (in words) (AURKA; NGP, 24 h treatment) | AURKA DC50 (AURKA; NGP, 24 h treatment) | DC50 (AURKA; SJNB-8, read-out: AURKA DC50 24h) | time to robust AURKA depletion (AURKA) [h] | AURKA degradation potency upon cotreatment with tariquidar (in words) (AURKA; SK-N-BE(2)-C) | DC50 (AURKA; [3]) [nM] | DC50 (AURKA; HEK293T, read-out: AURKA DC50 24h) [nM] | DC50 (AURKA; RPE, read-out: AURKA DC50 24h) [nM] | DC50 (AURKA; SJNB-1, read-out: AURKA DC50 24h) [nM] | DC50 (AURKA; SK-N-AS, read-out: AURKA DC50 24h) [nM] | DC50 (AURKA; SK-N-SH, read-out: AURKA DC50 24h) [nM] |
| --- | --- | --- | --- | --- | --- | --- | --- | --- | --- | --- | --- | --- | --- | --- | --- | --- | --- | --- | --- | --- |
| Cc1cc(Nc2ccc(F)c(CC3(C(=O)N4CC(N5CCN(c6ccc(NC7CCC(=O)NC7=O)cc6F)CC5)C4)CCN(Cc4cccc(Cl)c4F)CC3)n2)n[nH]1 (stereo not shown) [PROTAC 29] | > 2 | > 2 | 78 | 84 | 8,11 | 87 |  | 7.8 | < 4.1 |  | single-digit nanomolar range |  |  |  |  |  |  |  |  |  |
| Cc1cc(Nc2ccc(F)c(CC3(C(=O)N4CCC(CN5CCN(c6ccc(N7CCC(=O)NC7=O)cn6)CC5)CC4)CCN(Cc4cccc(Cl)c4F)CC3)n2)n[nH]1 [SK4454] | > 2 | > 2 | 88 | 92 | 8,09 | 90 | < 25 | 8.1 | < 4.1 |  | single-digit nanomolar range | < 25 nM and 23 nM | ≤ 1 | significantly enhanced | 270 |  |  |  |  |  |
| Cc1cc(Nc2ccc(F)c(CC3(C(=O)N4CCC(F)(CN5CCN(c6ccc(N7CCC(=O)NC7=O)cn6)CC5)CC4)CCN(Cc4cccc(Cl)c4F)CC3)n2)n[nH]1 [SK5527] | > 2 | > 2 | 88 | 93 | 8,68 | 89 | < 25 | 2.1 | 4.4 |  | single-digit nanomolar range |  | ≤ 1 | significantly enhanced | 73 | 17 | 15 | 56 | 30 | 23 |

The next lines start with results.

| half-life at 1 μM (Plasma stability assay) [h] | plasma t1/2 (Plasma stability assay) [h] | AURKA Degradation 24h @100nM (AURKA) | AURKA Degradation 24h @1000nM (AURKA) | pDC50 (AURKA) | Dmax (AURKA; NGP, 24 h treatment) [%] | DC50 (AURKA; [2]) [nM] | DC50 (AURKA; read-out: AURKA DC50) [nM] | hepatocyte CLint at 1 μM [1] [µL/min/1e6 cells] | AURKA degradation activity (in words) (AURKA; NGP, 24 h treatment) | AURKA DC50 (AURKA; NGP, 24 h treatment) | DC50 (AURKA; SJNB-8, read-out: AURKA DC50 24h) | Structure (SMILES) | time to robust AURKA depletion (AURKA) [h] | AURKA degradation potency upon cotreatment with tariquidar (in words) (AURKA; SK-N-BE(2)-C) | DC50 (AURKA; [3]) [nM] | DC50 (AURKA; HEK293T, read-out: AURKA DC50 24h) [nM] | DC50 (AURKA; RPE, read-out: AURKA DC50 24h) [nM] | DC50 (AURKA; SJNB-1, read-out: AURKA DC50 24h) [nM] | DC50 (AURKA; SK-N-AS, read-out: AURKA DC50 24h) [nM] | DC50 (AURKA; SK-N-SH, read-out: AURKA DC50 24h) [nM] |
| --- | --- | --- | --- | --- | --- | --- | --- | --- | --- | --- | --- | --- | --- | --- | --- | --- | --- | --- | --- | --- |
| > 2 | > 2 | 88 | 92 | 8,2 | 92 | 6 | 6.4 | < 4.1 |  |  |  | O=C1CCC(Nc2ccc(N3CCN(C4CN(C(=O)[C@]5(Cc6cccc(Nc7nccs7)n6)CC[C@@H](Oc6cccc(Cl)c6F)CC5)C4)CC3)c(F)c2)C(=O)N1 (stereo partly shown) [PROTAC 18] |  |  |  |  |  |  |  |  |
| > 2 | > 2 | 88 | 88 | 8,4 | 90 |  | 4 | < 4.1 | restored degradation activity |  |  | O=C1CCN(c2ccc(N3CCN(CC4CN(C(=O)[C@]5(Cc6cccc(Nc7nccs7)n6)CC[C@@H](Oc6cccc(Cl)c6F)CC5)C4)CC3)nc2)C(=O)N1 [PROTAC 23] |  |  |  |  |  |  |  |  |
| > 2 | > 2 | 88 | 93 | 8,23 | 94 |  | 5.8 | < 4.1 | restored degradation activity |  |  | O=C1CCN(c2ccc(N3CCN(CC4CCN(C(=O)[C@]5(Cc6cccc(Nc7nccs7)n6)CC[C@@H](Oc6cccc(Cl)c6F)CC5)CC4)CC3)nc2)C(=O)N1 [PROTAC 24] |  |  |  |  |  |  |  |  |
| 1.12 |  | 86 |  | 8,41 | 89 |  | 3.9 |  |  |  |  | O=C1CCC(N2C(=O)c3cccc(OCCOCCOCCOCCNC(=O)[C@]4(Cc5cccc(Nc6nccs6)n5)CC[C@@H](Oc5cccc(Cl)c5F)CC4)c3C2=O)C(=O)N1 (stereo partly shown) [SK2188, reference compound] |  |  |  |  |  |  |  |  |
